Assay results: US8389744B1, “TTPO (5 6,7-trithiapentacene-13-one) and its derivatives: a new class of thermally stable, photooxidatively resistant organic semiconductors” (University of New Hampshire, priority 2011, dated 2013)

Experiments:
[1] = Solubility in organic solvents; format: physicochemical
Thermal stability = format: physicochemical; details: stable up to and including this temperature

- solubility [1]: soluble in a variety of organic solvents
- thermal stability (Thermal stability): ≤ 450 °C
Structure (SMILES): O=C1c2cc3ccccc3c3c2C2=S(S3)Sc3c2c1cc1ccccc31 [TTPO, 5,6,7-Trithiapentacene-13-one]
